The test system of series [1] is adult Long-Evans male rats. As to the kind of experiment: Example 18: elevated plus maze, body weight and hypothalamic volumes in adult male rats treated with equol. In kind it is in vivo, rat. From the text:
In this study, anxiety-related behaviors were examined along with hormone levels in adult Long-Evans male rats exposed to equol. A known and accepted animal behavioral test for psychiatric disorders in humans, such as elevated plus maze (EPM) was used for this purpose (P. Willner, in Behavioral Models in Psychopharmacology: Theoretical, Industrial and Clinical Perspectives, New York, Cambridge Univ. Press, 1991; M. A. Geyer & A. Markou, in Psychopharmacology: The Fourth Generation of Progress, NY, Raven Press, pp. 787-798, 1995; and R. Hitzemann, Alcohol & Res. Health, 24: 149-158, 2000).
The EPM test relies on the inherent conflict between exploration of a novel environment and avoidance of its aversive features. Typically, animals spend little time and make few entries into the open arms (new environment) compared to the closed arms of the maze (secure environment). For example, an anti-anxiety agent or drug would increase the number of entries into and total time spent in the open arms of the maze.
Male rats 50 days of age were given a diet low in phytoestrogens (10 ppm of isoflavones) and remained on this diet until 215 days of age. At 150 days of age the rats were age and body weight matched and then divided into control or equol treatment groups. Starting at 190 days, the male rats received daily subcutaneous (0.1 cc) injections of control vehicle (DMSO) or equol (2.5 mg/Kg) for 25 consecutive days.
After 15 days on the treatments the animals were tested in the EPM that was video-taped for 3 minutes and later recorded for the number of entries into—and the percentage of total time spent—on the open arms via AnyMaze® computer software.
At 215 days of age the animals were sacrificed and body/prostate weights, serum hormone and isoflavone levels were determined along with determining the volume of hypothalamic regions that are sensitive to hormones.
The brains were processed via standard staining and analyzed via Bioquant® for morphometric SDN and AVPV parameters by treatments.

Series [2] concerns Long-Evans rats, male offspring. In words: Example 19: elevated plus maze of adult male offspring after pre- and early postnatal treatment. The series is classed as in vivo, rat. The conditions noted are these: offspring tested at about 90 days. As to the method:
Pregnant Long-Evans rats were treated via daily subcutaneous injections from gestational day 14 through 20 and during lactation from postnatal day 2 through 25 with: 1) control-DMSO vehicle or, 2) genistein@ 3 mg/day or 3) equol@ 3 mg/day according to the treatment groups. All animals were fed a phytoestrogen-low diet throughout these studies (10 ppm isoflavones). There were no significant differences in maternal body weights just before birth among the treatment groups. […] The maternal and male offspring genistein and equol levels @ 25 days post birth) paralleled that of the treatments administered.
At approximately 90 days of age the male offspring were tested by treatments (control, genistein and equol) in the EPM that was video-taped for 3 minutes and later recorded for the number of entries into—and the percentage of total time spent—on the open arms, as previously described. […] Equol time intervals were 2-fold greater than genistein values and genistein levels were approximately 9-fold greater than controls.

The target in series [3] is T1, ERα (Rattus norvegicus, UniProt P06211).
T1 construct: Full length rat ERα expression vector (pcDNA-ERα; RH Price UCSF); made in house; host or cells: TnT-coupled rabbit reticulocyte lysate in vitro translation (Promega)
T1 sequence (P06211 1-600): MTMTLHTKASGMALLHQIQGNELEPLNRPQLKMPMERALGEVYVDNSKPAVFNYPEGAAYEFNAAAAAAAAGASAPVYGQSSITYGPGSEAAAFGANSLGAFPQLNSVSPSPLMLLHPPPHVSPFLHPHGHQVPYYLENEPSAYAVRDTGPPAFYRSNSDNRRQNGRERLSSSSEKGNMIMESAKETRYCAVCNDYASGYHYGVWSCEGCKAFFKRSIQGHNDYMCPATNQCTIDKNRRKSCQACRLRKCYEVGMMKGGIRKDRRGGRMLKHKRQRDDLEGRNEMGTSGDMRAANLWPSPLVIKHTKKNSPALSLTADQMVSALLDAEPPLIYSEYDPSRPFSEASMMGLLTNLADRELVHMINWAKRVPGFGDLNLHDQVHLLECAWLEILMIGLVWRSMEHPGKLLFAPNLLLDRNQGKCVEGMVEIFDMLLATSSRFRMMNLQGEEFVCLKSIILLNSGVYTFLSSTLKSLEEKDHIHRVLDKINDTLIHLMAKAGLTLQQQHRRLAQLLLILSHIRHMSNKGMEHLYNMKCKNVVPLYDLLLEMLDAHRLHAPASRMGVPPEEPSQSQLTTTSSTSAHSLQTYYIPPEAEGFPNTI
As to the kind of experiment: Competition binding of equol enantiomers with [3H]E2 for in vitro translated ERα. The method, then: In vitro binding studies were performed to examine the relative affinities of S— and R-enantiomeric equol with the estrogen receptors ERα and ERβ.
Synthesis of Hormone Receptor Proteins: Full length rat ERα expression vector (pcDNA-ERα; RH Price UCSF) and ERβ expression vector (pcDNA-ERβ; T A Brown, Pfizer, Groton, […].) were used to synthesize hormone receptors in vitro using the TnT-coupled reticulocyte lysate system (Promega, Madison, Wis.) with T7-RNA polymerase, during a 90 min reaction at 30° C. Translation reaction mixtures were stored at −80° C. until further use.
Saturation isotherms: In order to calculate and establish the binding affinity of the S-equol and R-equol enantiomers for ERα and ERβ, 100 μL aliquots of reticulocyte lysate supernatant were incubated at optimal time and temperature; 90 min at room temperature (ERβ) and 18 hrs at 4° C. (ERα), with increasing (0.01-100 nm) concentrations of [3H] […] These times were determined empirically and represent optimal binding of receptor with estrogen. Nonspecific binding was assessed using a 300-fold excess of the ER agonist diethylstilbestrol, in parallel tubes. Following incubation, bound and unbound [3H]E2 were separated by passing the incubation reaction through a 1 mL lipophilic Sephadex LH-20 (Sigma-Aldrich Co., Saint Louis, Mo.) column Columns were constructed by packing a disposable pipette tip (1 mL; Labcraft, Curtin Matheson Scientific, Inc, Houston, Tex.) with TEGMD (10 mm Tris-Cl, 1.5 mm EDTA, 10% glycerol, 25 mm molybdate, and 1 mm dithiothreitol, pH 7.4)-saturated Sephadex according to previously published protocols (Wanda et al., 1986; O'Keefe and Handa, 1990). For chromatography, the columns were re-equilibrated with TEGMD (100 μL), and the incubation reactions were added individually to each column and allowed to incubate on the column for an additional 30 min. Following this incubation, 600 μL of TEGMD were added to each column, flow-through was collected, 4 mL scintillation fluid was added, and samples were counted (5 min each) in an 2900 TR Packard scintillation counter (Packard Bioscience, Meriden, Conn.).
Competition binding studies were used to assess the estrogenic properties of equol's S-equol and R-equol enantiomers. Based on the ability of S and R to compete with [3H]

The mark [4] stands for this setting: 25 consecutive days, n = 4, not significant vs control.
Setting [5] is: after 15 days of treatment, vs controls.

Consider two compounds from patent US20070043108A1, “Use of equol for ameliorating or preventing neuropsychiatric and neurodegenerative diseases or disorders” (priority 2002, published 2007).

Where “and” joins values, the source holds several entries; their conditions need not be identical. Identical values can stand only once.

As for `Oc1ccc(C2COc3cc(O)ccc3C2)cc1` (racemic) [equol, 7-hydroxy-3(4′hydroxyphenyl)-chroman], in series [1] (setting [4]), the “AVPV Volumes” value stood at 10.59 ± 1.6 mm^3 × 10^−3 and the “SDN Volumes” value is 46.3 ± 3.1 mm^3 × 10^−3. Also, in series [1] (setting [5]), the “number of entries into the open arms of the EPM” value is recorded as “significantly greater” and the “time spent on the open arms of the EPM” value is reported as “significantly greater”. Also, in series [1] (equol 2.5 mg/Kg sc daily for 25 days, vs control), the body weights result is listed as “significantly decreased”. Further, the serum equol levels result in series [1] (equol-treated animals) was “equivalent to consuming a phytoestrogen-rich soy diet”. Further, in series [2] (3 mg/day sc to dams), the “entries into the open arms vs controls” value is given as “significantly greater” and the “time in the open arms vs controls” value was “significantly greater”. Also, the “open arm time intervals, fold greater than genistein values” in series [2] turned out to be 2 fold.

Usually Kd stands for a measure of binding affinity in units of concentration. As to `Oc1ccc([C@@H]2COc3cc(O)ccc3C2)cc1` [R-equol], the “relative binding affinity for ERα compared with 17β-estradiol, fold less” value in series [3] was 210.6 fold and 211 fold. In series [3] (competition with [3H]E2, in vitro translated ER), the Kd amounted to 27.4 ± 3.8 nM.
